Experimental findings from publication PMC11246197 (Journal of medicinal chemistry, 2024) are described below.

This assay has as its system SARS-CoV-2 Omicron variant BA.1. The format is cell-based. The settings on record: read-out: EC50 against SARS-CoV-2 Omicron variant BA.1.

As for `CC(C)OC(=O)[C@H](C)N[P@](=O)(OC[C@H]1O[C@@](C#N)(c2ccc3c(N)ncnn23)[C@H](O)[C@@H]1O)Oc1ccccc1` [IsoRDV], the EC50 is 540 nM.

As a reminder, the EC50 is the concentration at which the effect is half-maximal.
